Test results: patent US20220226321A1, “INHIBITOR OF MNK FOR THE TREATMENT OF NEUROPATHIC PAIN” (Board of Regents, The University of Texas System, priority 2019, published 2022)
Entries after “also recorded” stand apart in the source; their conditions may differ.

Columns and labels:
SNI mice = assay: conditioned place preference (CPP) after SNI; assay type: in vivo, mouse; details: WT SNI, 10 mg/kg i.p., single conditioning day
Protocol: Conditioned Place Preference. A previously published CPP protocol from the Walters laboratory protocol was used (Yang et al., 2014). The CPP box consisted of one black and one white chamber connected by a striped chamber. CPP was conducted in a dark room with a single low lumens light source (Maia 69E120-WH). The middle chamber of the CPP box was brightly illuminated to discourage mice from spending time in the middle chamber. […] On day 1 of testing (preconditioning), each mouse was permitted to explore the middle and black (but not white) chambers for 30 minutes. […] On the last day of CPP, each mouse was placed in the middle chamber with unrestricted access to all chambers and video-recorded for 10 min. Data are presented as the percent change in time spent in the drug-paired chambered compared to the control (vehicle or sham for each genotype or surgery). This was calculated by dividing each animal's time spent in the white box by the control average, multiplying by 100 and then subtracting 100.
Surgery. Spared nerve injury (SNI) was performed by the ligation and cutting of the tibial and peroneal branches of the left sciatic nerve trifurcation, leaving the sural branch intact as previously described (Decosterd and Woolf, 2000). Sham surgeries were performed the same way but without cutting the nerve. Mice were allowed to recover for 2 weeks following surgery.

eIF4E phosphorylation = assay: Western blot of eIF4E phosphorylation in mPFC, DRG and sciatic nerve; assay type: in vivo, mouse
Protocol: Western blotting. […] The mPFC and DRGs were rapidly microdissected under a dissecting microscope and then flash frozen on dry ice. The mPFC was similarly collected from a separate group of WT male and female sham and SNI mice at 21 days post injury (the same time point as all rule-shifting experiments). Frozen tissues were homogenized with a pestle in lysis buffer (50 mM Tris, pH 7.4, 150 mM NaCl, 1 mM EDTA, pH 8.0, and 1% Triton X-100) containing protease and phosphatase inhibitors (Sigma-Aldrich), and then sonicated briefly. Samples were centrifuged at 14,000 rpm for 15 min at 4° C. 10 μg of protein was loaded into each well and separated by a 10%-12% SDS-PAGE gel. Proteins were transferred to a 0.45 μm PVDF membrane (Millipore) at 30 V overnight at 4° C. The next day, membranes were blocked with 5% non-fat dry milk (NFDM) in 1× Tris buffer solution containing Tween 20 (TTBS) for 1 h. Membranes were washed in 1×TTBS 3 times for 5 min each, then incubated with primary antibody overnight at 4° C. The primary antibodies used were: phospho-eIF4E (abcam ab76256; 1:1000), GAPDH (Cell Signaling Technology 2118S; 1:10000), total eIF4E (Cell Signaling Technology 9742S; 1:1000). […] Signals were detected using Immobilon Western Chemiluminescent HRP substrate (Millipore). […]

mice [1] = assay: marble burying task; assay type: in vivo, mouse; details: 10 mg/kg p.o. daily for 7 days, vs WT naïve
Protocol: Marble burying task. The marble burying task was used to assess obsessive compulsive disorder (OCD)-like behaviors as previously described^28. Nineteen marbles were placed on top of 5 cm of standard bedding in a clean cage. A mouse was placed into the cage for 30 minutes and then the number of buried marbles was counted.

[2] = system: eIF4E phosphorylation at serine 209; details: in vitro, tumor cell lines; read-out: IC50, reduction of eIF4E phosphorylation at serine 209; cited from earlier work
mice [3] = assay: rotarod; assay type: in vivo, mouse; details: 10 mg/kg i.p., 1 hour
Protocol: Rotarod. Motor function was assessed using a rotarod (IITC Life Science rotarod series 8) with ramp speed (20 rpm acceleration) at a starting speed of […] for a maximum of 120s. The time until each animal fell was recorded for each trial. Naïve mice were trained for 1 trial, and then 2 baseline trials were conducted and scores for both trials were averaged.

infralimbic cortex = assay: axon initial segment (AIS) length in infralimbic cortex, immunohistochemistry; assay type: in vivo, mouse; details: 10 mg/kg p.o. daily for 7 days, male SNI mice
Protocol: Immunohistochemistry. All mice were perfused at 3 weeks post-surgery (the day after rule-shifting). Mice were deeply anesthetized with a mixture of ketamine (80 mg/kg) and xylazine (12 mg/kg; i.p.) and then transcardially perfused with 1× phosphate buffered saline (PBS; 4° C., pH 7.4) followed by 10% formalin in 0.1 M phosphate buffer (PB; 4° C., pH 7.4; 25 mL at a flow rate of […]) using a perfusion pump. Brains were dissected and transferred […] to a 30% sucrose in 0.1M PB. Once the brains sunk in sucrose, they were frozen in OCT over dry ice. Coronal sections (30 μm) were cut using a cryostat and a hole was placed in the left hemisphere to demarcate the left (ipsilateral) hemisphere. Free floating sections were then washed in 0.1M PB, and then incubated in blocking solution (10% Normal Goat Serum, 0.3% Triton-X 100 in 0.1M PB) for 1 hr at room temperature with gentle rocking/agitation. Sections were incubated in primary antibody (mouse-anti-AnkyrinG; UC Davis/NIH NeuroMab Facility, clone N106/36 RRID:AB_10673030; 2 μg/ml working concentration) diluted in blocking solution for 3 hrs at room temperature. […]
Image Analysis. […] For each image, 30 segments were analyzed in layers 2/3 and layers 5/6 of the ipsilateral and contralateral IL in CellSens (Olympus) using the polyline measure tool. […]

Cc1cc(Nc2cc(N)ncn2)c(=O)n2c1C(=O)NC21CCCCC1 [eFT508, Tomivosertib]
more time in the drug-paired (white) chamber vs SNI animals that received vehicle (SNI mice): ~40% | crossing of the blood-brain-barrier (eIF4E phosphorylation; evidenced by western blot of eIF4E phosphorylation after drug-treatment): crosses the blood-brain-barrier | eIF4E phosphorylation in mPFC, DRG and sciatic nerve (eIF4E phosphorylation; naïve mice, 1 hour after 10 mg/kg i.p. or p.o.): rapid and profound decrease; also recorded: significantly decreased | marble burying (mice [1]): no differences in marble burying; also recorded: performed similarly to naïve and vehicle-controls | IC50 [2]: 2 to 16 nM | rotarod performance vs naïve mice (mice [3]): no significant difference | SNI-induced changes in AIS length (infralimbic cortex): reversed
